Measurements taken from publication PMC10669340, “Bioactive Compounds from an Endophytic Pezicula sp. Showing Antagonistic Effects against the Ash Dieback Pathogen” (Biomolecules, 2023).
Values after ≈ are worked out from the molar mass of the structure shown. Read-outs that look alike come from different tables or passages of the source.

Legend:
MTT cytotoxicity assay = format: cell-based; settings: read-out: Cytotoxic activity (IC50)
Procedure: (§1) The in vitro cytotoxicity assay was performed using the MTT (3-(4,5-dimethylthiayol-2-yl)-2,5-diphenyltetrazolium bromide) test in 96-well microtiter plates as previously described.

[1] = tested on: H. fraxineus (isolate RH02-T6-B4-2); test: Agar disc diffusion assay; format: cell-based, Hymenoscyphus fraxineus; settings: 6 mm disc, 7 days, 21 °C, n.i.: no inhibition
Procedure: The antifungal activity of the isolated compounds against H. fraxineus was assessed by the disc diffusion method using 9 cm diameter petri dishes as previously described […] Three sterile filter paper discs per plate were gently placed on dried potato–dextrose agar. The fungicide nystatin was applied as the positive control (20 and 50 µg/paper disc) and methanol as the negative control (10 µL/paper disc). The test plates were incubated at 21 °C for 7 days, the inhibition diameters were measured, and the activity was evaluated compared to nystatin.
Figure S44: Agar disc (6 mm diam.) diffusion assay of compound CJ-17,572 (1) against H. fraxineus RH02-T6-B4-2, grown in 9-cm petri dishes on agar-based PD
medium with H. fraxineus, N - positive control nystatin, M - negative control methanol, CJ – 1.
Table S1. Antifungal activity of the compounds 1-6. n.i.: no inhibition, n.t.: not tested.
Compounds Amount ( µg/paper disc)
Peziculastatin n.t. n.i. 8 mm
Mycorrhizin A 19 mm 31 mm n.t.
Cryptosporioptide A n.t. n.i. n.i.
Cryptosporioptide B n.t. n.i. 8 mm
Cryptosporioptide C n.t. n.i. n.i.
Nystatin 21 mm 24 mm n.t.

[2] = tested on: Staphylococcus aureus DSM 346; test: Antimicrobial serial dilution assay (MIC); format: cell-based; settings: Staphylococcus aureus DSM 346, n.i.: no inhibition; for MIC: DSM346, read-out: Minimum inhibitory concentration (MIC)
Procedure: (§2) The antimicrobial activity (minimum inhibitory concentration, MIC) of the compounds was determined against Acinetobacter baumannii DSM 30008, Bacillus subtilis DSM 10, Chromobacterium violaceum DSM 30191, Escherichia coli DSM 1116, Mycobacterium smegmatis ATCC 700084, Pseudomonas aeruginosa PA14, Staphylococcus aureus DSM 346, Candida albicans DSM1665, Mucor hiemalis DSM 2656, Pichia anomala DSM 6766, Rhodotorula glutinis DSM 10134 and Schizosaccharomyces pombe DSM 70572 in a serial dilution assay as previously described.

[3] = tested on: Chromobacterium violaceum DSM 30191; test: Antimicrobial serial dilution assay (MIC); format: cell-based; settings: n.i.: no inhibition
Procedure: as §2

Pichia anomala DSM 6766 = test: Antimicrobial serial dilution assay (MIC); format: cell-based; settings: Pichia anomala DSM 6766; n.i.: no inhibition
Procedure: as §2

[4] = tested on: Escherichia coli DSM 1116; test: Antimicrobial serial dilution assay (MIC); format: cell-based; settings: n.i.: no inhibition
Procedure: as §2

Candida albicans DSM1665 = test: Antimicrobial serial dilution assay (MIC); format: cell-based; settings: n.i.: no inhibition
Procedure: as §2

[5] = tested on: Schizosaccharomyces pombe DSM 70572; test: Antimicrobial serial dilution assay (MIC); format: cell-based; settings: Schizosaccharomyces pombe DSM 70572; n.i.: no inhibition
Procedure: as §2

[6] = tested on: Pseudomonas aeruginosa PA14; test: Antimicrobial serial dilution assay (MIC); format: cell-based; settings: n.i.: no inhibition
Procedure: as §2

[7] = tested on: Acinetobacter baumannii DSM 30008; test: Antimicrobial serial dilution assay (MIC); format: cell-based; settings: n.i.: no inhibition
Procedure: as §2

Bacillus subtilis DSM 10 = test: Antimicrobial serial dilution assay (MIC); format: cell-based; settings: Bacillus subtilis DSM 10, n.i.: no inhibition; for MIC: DSM10, read-out: Minimum inhibitory concentration (MIC)
Procedure: as §2

[8] = tested on: Rhodotorula glutinis DSM 10134; test: Antimicrobial serial dilution assay (MIC); format: cell-based; settings: Rhodotorula glutinis DSM 10134, n.i.: no inhibition
Procedure: as §2

[9] = tested on: Mycobacterium smegmatis ATCC 700084; test: Antimicrobial serial dilution assay (MIC); format: cell-based; settings: Mycobacterium smegmatis ATCC 700084; n.i.: no inhibition
Procedure: as §2

Mucor hiemalis DSM 2656 = test: Antimicrobial serial dilution assay (MIC); format: cell-based; settings: Mucor hiemalis DSM 2656, n.i.: no inhibition; for MIC: DSM2656, read-out: Minimum inhibitory concentration (MIC)
Procedure: as §2

[10] = tested on: panel of bacteria and fungi; test: Antimicrobial serial dilution assay, whole panel (summary statements); format: cell-based
Procedure: as §2

[11] = tested on: panel of mammalian cell lines; test: MTT cytotoxicity assay, panel (summary statements); format: cell-based; settings: 4–6 only KB3.1 and L929
Procedure: as §1

[12] = tested on: Staphylococcus aureus DSM 1104 preformed biofilm; test: Biofilm assay, dispersal of preformed biofilm; format: cell-based; set-up: Antibiofilm activity, preformed S. aureus: unit not given here; settings: (/) no activity
Procedure: Staphylococcus aureus DSM 1104 from −20 °C stock was cultured in 25 mL CASO (Casein–Peptone Soymeal–Peptone; peptone from casein 15 g/L, peptone from soy flour 5 g/L, NaCl 5 g/L, pH 7.3) medium at 37 °C at 100 rpm in 250 mL for 20 h. The precultured suspension of S. aureus was adjusted so that its OD600 matched the turbidity of a 0.001 McFarland standard. S. aureus was incubated in 96-well tissue microtiter plates (TPP tissue culture ref.no 92196, Switzerland) for 24 h at 150 rpm in […] CASO medium with 4% glucose broth. The supernatant was removed from the wells and 150 μL of the respective media (fresh) was added to the wells, together with the serially diluted compounds (250–2 μg/mL). The plates were incubated for a further 24 h at 37 °C. Staining of the biofilms was carried out as described previously. Standard deviation (SD) of two repeats with duplicates each were 10% or less. Methanol (2.5%) and microporenic acid A (250–2 μg/mL) were used as solvent and positive controls. Error bars indicate SD with duplicates in two biological repeats.

[13] = tested on: Candida albicans DSM 11225 biofilm; test: Biofilm assay, inhibition of biofilm formation; format: cell-based; settings: (/) no activity
Procedure: The stock of fungal pathogen Candida albicans DSM 11225 from −20 °C was cultured in 25 mL YPD (Yeast extract Peptone Dextrose; dextrose 20 g/L, peptone 20 g/L, yeast extract 10 g/L) medium in a 250 mL flask at 30 °C with shaking 100 rpm for 18 h. Turbidity of the broth was measured and diluted to match the turbidity of a 0.05 McFarland standard in RPMI 1640 medium (Gibco, New York, NY, USA, Thermo Fisher Scientific). Afterwards, 150 μL of the fungal dispersion was added into each well of a 96-well microtiter plate (Falcon no. 351172, Thermo Fisher Scientific) and further incubated for 90 min. The supernatant was removed, and the plate was washed once by using PBS buffer. Compounds were serially diluted in 150 μL in fresh medium to concentrations of 250–2 μg/mL. Staining and analysis were conducted as previously described. Methanol (2.5%) and farnesol (250–2 μg/mL) were used as solvent and positive controls. Error bars indicate SD with duplicates in two biological repeats.

[14] = tested on: Fraxineus excelsior leaves; test: Phytotoxicity leaf puncture assay; settings: 1 mg/mL in MeOH, 20 µL on punctured leaves, evaluated after 3 days
Procedure: The phytotoxicity of the compounds 1, 3 and 4 was assessed using the leaf puncture assay as described previously. The other compounds could not be evaluated because of the limited quantity.
For this assay, similar leaves of the same Fraxineus excelsior plant were chosen onto which the compounds were applied. The pure compounds were dissolved at 1 mg/mL in MeOH. Then, 20 µL of test samples were applied to the adaxial sides of leaves that had previously been needle punctured. A total of 20 µL of MeOH in distilled water (4%) was applied on the leaves as the negative control and 1 mg/mL macrocidin A [23] as the positive control. Each treatment was repeated three times and then the leaves were placed on moistened paper filters in petri dishes (diameter 9 cm) to prevent the droplets from drying. The experiment was run in duplicate. Leaves were evaluated for the symptoms after 3 days.

[15] = human, A431 squamous cell carcinoma cells
[16] = human, A549 lung carcinoma cells
[17] = human, KB3.1 endocervical adenocarcinoma cells, n.c.: no cytotoxicity
[18] = human, MCF-7 breast adenocarcinoma cells
[19] = mouse, L929 fibroblast cells, n.c.: no cytotoxicity

SMILES	IC50 (MTT cytotoxicity assay; [15])	IC50 (MTT cytotoxicity assay; [16])	IC50 (MTT cytotoxicity assay; [17])	IC50 (MTT cytotoxicity assay; [18])	IC50 (MTT cytotoxicity assay; [19])	Antifungal activity, inhibition diameter ([1]; 50 µg/paper disc)	Antifungal activity, inhibition diameter ([1]; 100 µg/paper disc)	MIC [2]	Minimum inhibitory concentration (MIC) [3]	Minimum inhibitory concentration (MIC) (Pichia anomala DSM 6766)	Minimum inhibitory concentration (MIC) [4]	Minimum inhibitory concentration (MIC) (Candida albicans DSM1665)	Minimum inhibitory concentration (MIC) [5]	Minimum inhibitory concentration (MIC) [6]	Minimum inhibitory concentration (MIC) [7]	MIC (Bacillus subtilis DSM 10)	Minimum inhibitory concentration (MIC) [9]	MIC (Mucor hiemalis DSM 2656)	antimicrobial activity against the tested microorganisms (in words) [10]	Minimum inhibitory concentration (MIC) [8]	other results
CCCCCCC(C)/C=C/C=C/C=C/C(=O)N[C@H](C(=O)O)[C@H](O)c1ccccc1O (relative stereo) [Compound 2, peziculastatin]	53 µM	41 µM	17 µM	11 µM	53 µM	n.i.	8 mm	16.6 µg/mL (≈ 39.9 µM)	n.i.	n.i.	n.i.	n.i.	n.i.	n.i.	n.i.	33.3 µg/mL (≈ 80.1 µM)	n.i.	33.3 µg/mL (≈ 80.1 µM)	moderate to weak antifungal activity	–	MIC ([8]; DSM10134, read-out: Minimum inhibitory concentration (MIC)): 33.3 µg/mL (≈ 80.1 µM)
COC1=C(C(=O)[C@@]2(C)[C@@H](C)C=C[C@H]3C[C@@H](C)CC[C@@H]32)C(=O)N(C)[C@H]1[C@@H](C)O [Compound 7, 4′-methyl-CJ-17,572]	–	–	–	–	–	–	–	33.3 µg/mL (≈ 88.7 µM)	n.i.	n.i.	n.i.	n.i.	n.i.	n.i.	n.i.	8.3 µg/mL (≈ 22.1 µM)	n.i.	66.6 µg/mL (≈ 177 µM)	weak antimicrobial activity	n.i.	IC50 (MTT cytotoxicity assay; human, A431): 24 µM; IC50 (MTT cytotoxicity assay; human, A549): 10 µM; IC50 (MTT cytotoxicity assay; human, KB3.1, n.c.: no cytotoxicity): 6.4 µM; IC50 (MTT cytotoxicity assay; human, MCF-7): 9.6 µM; IC50 (MTT cytotoxicity assay; human, PC-3): 9.1 µM; IC50 (MTT cytotoxicity assay; human, SKOV-3): 14 µM; IC50 (MTT cytotoxicity assay; mouse, L929, n.c.: no cytotoxicity): 32 µM; cytotoxicity against the tested cell lines (in words) [11]: active against all the tested cell lines
COC1=C(C(=O)[C@@]2(C)[C@@H](C)C=C[C@H]3C[C@@H](C)CC[C@@H]32)C(=O)[C@H]([C@@H](C)O)N1C [Compound 8, 2′-methyl-CJ-17,572]	20 µM	35 µM	15 µM	1.8 µM	43 µM	–	–	–	n.i.	n.i.	n.i.	n.i.	n.i.	n.i.	n.i.	–	n.i.	–	did not show any activity	n.i.	IC50 (MTT cytotoxicity assay; human, PC-3 prostate cancer cells): 18 µM; IC50 (MTT cytotoxicity assay; human, SKOV-3 ovarian carcinoma cells): 21 µM; Minimum inhibitory concentration (MIC) [2]: n.i.; Minimum inhibitory concentration (MIC) (Bacillus subtilis DSM 10): n.i.; Minimum inhibitory concentration (MIC) (Mucor hiemalis DSM 2656): n.i.; cytotoxicity against the tested cell lines (in words) [11]: active against all the tested cell lines
CC12Oc3ccc(-c4ccc5c(c4O)C(=O)C4=C(O)C6OC6(C)C(OC(=O)CC(=O)O)C4(C)O5)c(O)c3C(=O)C1=C(O)C1OC1(C)C2OC(=O)CC(=O)O (stereo not drawn) [Compound 4, Cryptosporioptide A]	–	–	–	–	–	n.i.	n.i.	–	n.i.	n.i.	n.i.	n.i.	n.i.	n.i.	n.i.	–	n.i.	–	–	n.i.	Antibiofilm activity, preformed S. aureus ([12]; 62.5 µg/mL): 70; Antibiofilm activity, preformed S. aureus ([12]; 125 µg/mL): 73; Antibiofilm activity, preformed S. aureus ([12]; 250 µg/mL): 80; Antibiofilm activity, C. albicans ([13]; 31.3 µg/mL): 39; Antibiofilm activity, C. albicans ([13]; 62.5 µg/mL): 71; Antibiofilm activity, C. albicans ([13]; 125 µg/mL): 71; Antibiofilm activity, C. albicans ([13]; 250 µg/mL): 81; phytotoxic activity, leaf puncture assay [14]: brownish lesions; Minimum inhibitory concentration (MIC) [2]: n.i.; Minimum inhibitory concentration (MIC) (Bacillus subtilis DSM 10): n.i.; Minimum inhibitory concentration (MIC) (Mucor hiemalis DSM 2656): n.i.
